According to patent publication US20250352675A1, “CA-IX TARGETING FLUORESCENT PROBES” (BRACCO IMAGING S.P.A., priority 2022, published 2025):
Like-named read-outs stand apart in the source and are kept apart here. Each block holds one compound with its values, some of them ahead of it.

Legend:
[1] = biological target: T1, recombinant bovine CAII enzyme (bCAII) (Bos taurus, UniProt P00921); experiment: Dansylamide (DNSA) displacement fluorescence assay on carbonic anhydrase catalytic site; type: binding
T1 construct: purchased Sigma-Aldrich; host or cells: E. coli
T1 sequence (P00921 whole entry): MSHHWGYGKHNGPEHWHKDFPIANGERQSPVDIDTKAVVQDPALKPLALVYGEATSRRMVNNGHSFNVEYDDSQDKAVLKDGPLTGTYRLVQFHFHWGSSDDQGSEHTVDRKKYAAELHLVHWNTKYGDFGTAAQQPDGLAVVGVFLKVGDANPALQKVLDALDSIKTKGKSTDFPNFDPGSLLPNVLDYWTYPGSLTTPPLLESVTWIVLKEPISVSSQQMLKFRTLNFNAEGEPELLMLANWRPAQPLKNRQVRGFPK
Description: The binding affinity of the compounds of formula (I) to Carbonic Anhydrase (CA) catalytic site was determined to assess the targeting efficacy of the molecular vectors, even after labeling the targeting ligand with the fluorescent portion of the probe.
Such enzyme in fact is highly available and has a catalytic site with high degree of homology in different carbonic anhydrase isoforms (Aggarwal M. et al., J Enzyme Inhib Med Chem 2013; 28(2): 267-277).
The dissociation constant (Ko) of compounds of formula (I) for bCAII was estimated by performing a fluorescence-based assay, exploiting the drop of fluorescence deriving from the displacement of carbonic anhydrase-bound dansylamide (DNSA) in presence of competitors and was adapted for application in 96-well plates from Wang S C et al., Biochem Mol Biol Educ. 2006, 34(5): 364-368. […] In both cases DNSA is excited at about 320 nm. Thus, excitation of carbonic anhydrase aromatic residues (Trp) at 285 nm generates an emission at 340 nm, that is quenched in presence of bound DNSA. The quenching occurs by FRET (fluorescence resonance energy transfer) to bound DNSA, which is in turn excited, emitting at 460 nm.
Molecules that bind to CA in the same binding site of DNSA, such as sulfonamides or derivatives, competitively displace DNSA from CA. The degree of displacement is function of the affinity of competitors and can be followed through the drop of fluorescence at 460 nm.
In detail, 5-(Dimethylamino)-1-naphthalenesulfonamide (dansylamide, DNSA, Sigma-Aldrich 218898) was reconstituted in 20 mM Tris pH 8, aliquoted and stored at −20° C.; bCAII (recombinant, expressed in E. Coli, Sigma-Aldrich) was divided in aliquots and stored at −20° C.
DNSA fluorescence emission at 462 nm from each well was recorded after excitation at 285 nm (Trp wavelength of excitation) and consequent selective excitation of DNSA bound to bCAII by FRET. Fractional saturation of bCAII was experimentally determined through normalization of fluorescence data between 1 (no compounds) and 0 (maximal DNSA displacement by presence of binding competitors), according to the equation below: […]
where r is fractional saturation, FLobs is the recorded fluorescence intensity, FLmin is the fluorescence intensity recorded at maximal concentration of compounds, and FLmax is fluorescence recorded in absence of compounds.
The KD of CA-binding compounds (=KDcomp) was then derived by mathematical fitting of experimental data according to the equation: […]
Mathematical fitting was performed using Microsoft Excel Solver.
All compounds were tested in triplicate.

[2] = Optical characterization (excitation/emission maxima, molar extinction coefficient); type: physicochemical
Description: A dual-beam UV-VIS spectrophotometer (Lambda 40, Perkin Elmer) was used to determine the absorbance (Abs) of the compounds of the invention. Emission/excitation (Em/Ex) spectra were carried out on a spectrofluorometer (FluoroLog-3 1IHR-320, Horiba Jobin Yvon) equipped with an F-3018 integrating sphere accessory. The measurements were performed using an excitation wavelength at maximum absorbance of different dyes, and the sample was excited with a 450W Xenon Light Source. Detection was performed by photomultiplier tubes (PMT-NIR) cooled detector or by TBX-04 detector. Dye solutions were carefully prepared to have an absorbance lower than 0.1 (optical densities) to minimize re-absorption phenomena.
The compounds of the invention were characterized in terms of their optical properties in vitro in aqueous medium (i.e., water/PBS pH 7.4) and in a clinical chemistry control serum (Seronorm, Sero S A), mimicking the chemical composition and optical properties of human serum. All solutions were freshly prepared. In particular, the compounds of the invention are characterized by absorption maxima comprised in the range from about 750 nm to 780 nm.
The excitation and emission maxima in PBS and Seronorm and the molar extinction coefficient (E) in water of representative compounds of formula (I) are shown in Table I in comparison with the known CA-IX targeting fluorescent probe named Hypoxyfluor-1 (HF-1, for instance disclosed in Bioconjugate Chem 2018, 29, 3320-3331). […] Moreover, the extinction coefficients were higher than […] for all compounds.

CA-IX = biological target: T2, CA-IX (Homo sapiens, UniProt Q16790); experiment: Cellular binding assessment by flow cytometry on CA-IX expressing HT-29 cells; details: 1 hour 30 min on ice, read-out: CA-IX receptor affinity (KD, to HT-29 cells)
T2 construct: host or cells: HT-29 human colorectal adenocarcinoma cells
Description: Human colon adenocarcinoma HT-29 cells (ATCC) used for the cellular binding experiments were cultured in McCoy's 5A medium (Sigma-Aldrich), supplemented with 10% HyClone Fetal Clone III (Euroclone), 2 mM L-glutamine (Sigma-Aldrich), 100 IU/mL penicillin, 0.1 mg/mL streptomycin, 0.25 μg/mL amphotericin B (Antibiotic-Antimycotic solution, Life Technologies) and cells were grown at 37° C. in humidified atmosphere enriched with 5% CO2. DPBS without MgCl2 and CaCl2 (Sigma-Aldrich) was used for cell rinsing.
Indeed, by using the anti-human CA-IX antibody MAB2188 (R&D Systems) and the DAKO […], according to the instruction of the datasheet, HT-29 cells were estimated to express about 150,000 CA-IX molecules per cell. Thus, HT-29 cells were used to measure the binding of all compounds to CA-IX, expressed in its physiological environment at the cell-surface. Briefly, HT-29 cells were detached with StemPro® Accutase® Cell Dissociation Reagent (Life Technologies), collected in DPBS and counted. At least 2·10^5 cells were placed in 1.5 mL tubes on ice and resuspended in 50-100 μL of cold FACS buffer (eBioscience™ Flow Cytometry Staining Buffer, Invitrogen) containing scalar concentrations of compounds (compound 1: range 1-5 μM; compounds 2 and 3: range 0-20 μM). After incubation (1 hour and 30 min on ice in the dark), cells were rinsed 3 times in 300 μL of cold FACS buffer by centrifugation (5 min, 4° C., 350 RCF), discarding the supernatant. Cell pellets were then resuspended in 200 μL of cold FACS buffer (or in a suitable volume in order to obtain no more than 1000 recorded events per μL during FACS analysis) and analyzed with the flow cytometer Accuri™ C6 (BD Biosciences). The mean cell-associated fluorescence was plotted against concentration and the dissociation constant at equilibrium (Ko) was inferred by mathematical fitting with GraphPad Prism v.9 software, according to the following equation: […]
where Bmax is the maximum specific binding in the same units as Y. KD is the equilibrium dissociation constant, in the same units as X. NS is the slope of nonspecific binding in Y units divided by X units. Background is the amount of nonspecific binding with no added Compound.
All compounds were analyzed in at least three independent experiments. The calculated KD are summarized in Table III and compared with the one obtained for HF-1.

HT-29 tumor = experiment: Ex vivo tumor-to-background ratio in excised HT-29 tumors; design: species or system mice; details: 1 nmol/mouse, samples collected 24 hours after administration; tumor vs hind limb muscle
Description: (§1) The ex vivo biodistribution of the representative compounds 1, 2 and 3 and of the reference compound HF-1 (at 1 nmol/mouse) was evaluated in HT-29 excised tumors and tissues at the end of the in vivo OI sessions 24 hours post intravenous administration. At the end of the in vivo experiment, animals were euthanized by overdose of gaseous anesthesia followed by cervical dislocation. Tumor tissue, muscle, and other organs of interest were removed for ex vivo fluorescent signal measurements. The fluorescence signal intensity was measured by the IVIS Spectrum system. Regions of interest (ROIs) were drawn around each organ and tumor using the Living Image Software (PerkinElmer) and evaluating signal intensity in the tissues (expressed as Average Radiant Efficiency). The ratio between the fluorescence signal in the organs and tumor was then calculated to assess the contrast to hind limb muscle (representing the background).

[3] = Ex vivo biodistribution, organ-to-muscle ratio; type: in vivo, mice; details: 1 nmol/mouse, 24 hours after administration
Description: as §1
Moreover, FIG. 6 (b) and Table VIII show the accumulation and distribution of the fluorescent probes in the dissected organs, reporting the ex vivo values of organs-to-muscle ratio from samples collected at 24 hours after the administration of representative compounds 1, 2 and 3 and of the reference compound HF-1 (1 nmol/mouse).

[4] = Optical characterization (excitation/emission maxima, molar extinction coefficient); type: physicochemical; details: in water
[5] = injection into the patient; cited from earlier work

Kd ([1]; previously experimentally determined, read-out: dissociation constant at equilibrium of DNSA (KDDNSA)): 170 nM
Compound: CN(C)c1cccc2c(S(N)(=O)=O)cccc12 [DNSA, 5-(Dimethylamino)-1-naphthalenesulfonamide, reference compound]

Max Em ([2]; PBS pH 7.4): 798 nm
Max Ex ([2]; PBS pH 7.4): 772 nm
Max Em ([2]; Seronorm): 808 nm
Max Ex ([2]; Seronorm): 792 nm
Kd ([1]; 0.25 μM bCAII, 5 μM DNSA, 20 mM Tris pH 8, triplicate, read-out: CAII receptor affinity (KD)): 9.5 ± 1 nM
Kd (CA-IX): 115 ± 8 nM
Organ-to-muscle ratio, intestine [3]: 2.2 ± 1.3
Organ-to-muscle ratio, kidney [3]: 2.4 ± 0.3
Organ-to-muscle ratio, liver [3]: 5.7 ± 0.2
Organ-to-muscle ratio, skin [3]: 1.4 ± 0.0
Organ-to-muscle ratio, spleen [3]: 1.4 ± 0.3
Organ-to-muscle ratio, stomach [3]: 4.0 ± 1.7
molar extinction coefficient (ε) [4]: 255000 M⁻¹ cm⁻¹
Compound: CC1(C)C(/C=C/C2=C(Oc3ccc(CCC(=O)NCCCCCCCC(=O)Nc4nnc(S(N)(=O)=O)s4)cc3)C(=C/C=C3/N(CCCCS(=O)(=O)O)c4ccc(S(=O)(=O)O)cc4C3(C)C)/CCC2)=[N+](CCCCS(=O)(=O)[O-])c2ccc(S(=O)(=O)O)cc21 [HF-1, reference compound]
ex vivo TBR ± SD, HT-29 tumor (HT-29 tumor): 3.1 ± 0.3

Compound: ^124I-cG250: chimeric version of monoclonal antibody G250 labelled with the radionuclide 124I
time after injection to reach tumor/blood ratios suitable for imaging [5]: 2 to 7 days
